These are literature values, as cited in US4127521A, “Novel octacosapeptides, intermediates therefor and pharmaceutical compositions and methods employing said octacosapeptides” (priority 1977, dated 1978).

For data set [1] the following is noted: injected directly into the brain of the rat.
The subject of data set [2] is brain opiate receptor sites.

Regarding “H-Tyr-Gly-Gly-Phe-Met-OH [methionine enkephalin]”, the analgesic activity entry in data set [1] is reported as “weak analgesic agent of short duration”. In data set [2], the “binding to partially purified brain opiate receptor sites” value is given as “binds stereo-specifically”.
